Reference: PubChem BioAssay AID256 (DTP/NCI, 2004)
Where “and” joins values, the source holds several entries; their conditions need not be identical. Identical values can stand only once. Toxic doses and inconclusive results are not listed.

Tested on: CD2F1 mice, L1210 leukemia ip, survival T/C
Experiment: NCI In Vivo Anticancer Drug Screen. Data for tumor model L1210 Leukemia (intraperitoneal) in CD2F1 (CDF1) mice
Conditions: higher = longer survival
Summary of the method: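 Compound-dosed mice with transplantable tumor versus matched vehicle controls; endpoint ratio T/C reported.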

[1] = endpoint: mean survival time, dose: 100.0 mg/kg/injection, schedule: Q01DX001 (ip), vehicle: saline with Tween-80
[2] = endpoint: mean survival time, dose: 100.0 mg/kg/injection, schedule: Q01DX009 (ip), vehicle: saline with Tween-80
[3] = endpoint: mean survival time, dose: 100.0 mg/kg/injection, schedule: Q04DX002 (ip), vehicle: saline with Tween-80
[4] = endpoint: mean survival time, dose: 200.0 mg/kg/injection, schedule: Q01DX001 (ip), vehicle: saline with Tween-80
[5] = endpoint: mean survival time, dose: 200.0 mg/kg/injection, schedule: Q01DX009 (ip), vehicle: saline with Tween-80
[6] = endpoint: mean survival time, dose: 200.0 mg/kg/injection, schedule: Q04DX002 (ip), vehicle: saline with Tween-80
[7] = endpoint: mean survival time, dose: 400.0 mg/kg/injection, schedule: Q04DX002 (ip), vehicle: saline with Tween-80

CC12CCC(=O)C1O2 (stereo not drawn)
T/C (endpoint: mean survival time, dose: 12.5 mg/kg/injection, schedule: Q04DX002 (ip), vehicle: saline with Tween-80): 103 % of control | T/C (endpoint: mean survival time, dose: 25.0 mg/kg/injection, schedule: Q04DX002 (ip), vehicle: saline with Tween-80): 100 % of control | T/C (endpoint: mean survival time, dose: 50.0 mg/kg/injection, schedule: Q04DX002 (ip), vehicle: saline with Tween-80): 100 % of control

CC([NH-])CC[NH-].O=[N+]([O-])O.O=[N+]([O-])O.[Pt+2] (stereo not drawn)
T/C (endpoint: mean survival time, dose: 6.25 mg/kg/injection, schedule: Q04DX003 (ip), vehicle: saline with Tween-80): 169 % of control

CCCCCCCCCCCC(=O)NC(=S)Nc1cc(Cl)ccc1Cl
T/C (endpoint: mean survival time, dose: 50.0 mg/kg/injection, schedule: Q01DX001 (ip), vehicle: saline with Tween-80): 89 % of control | T/C (endpoint: mean survival time, dose: 50.0 mg/kg/injection, schedule: Q04DX003 (ip), vehicle: saline with Tween-80): 92 % of control | T/C [1]: 89 % of control | T/C [2]: 86 % of control and 94 % of control | T/C [3]: 98 % of control | T/C (endpoint: mean survival time, dose: 100.0 mg/kg/injection, schedule: Q04DX003 (ip), vehicle: saline with Tween-80): 92 % of control | T/C [4]: 92 % of control | T/C [5]: 86 % of control and 92 % of control | T/C [6]: 98 % of control | T/C [7]: 98 % of control | T/C (endpoint: mean survival time, dose: 400.0 mg/kg/injection, schedule: Q04DX003 (ip), vehicle: saline with Tween-80): 86 % of control

C[n+]1cccc(C=O)c1
T/C (endpoint: mean survival time, dose: 100.0 mg/kg/injection, schedule: Q01DX001 (ip), vehicle: saline): 103 % of control | T/C (endpoint: mean survival time, dose: 200.0 mg/kg/injection, schedule: Q01DX001 (ip), vehicle: saline): 105 % of control | T/C (endpoint: mean survival time, dose: 400.0 mg/kg/injection, schedule: Q01DX001 (ip), vehicle: saline): 108 % of control

CN(C)C(=O)CCC(NC(=O)c1ccc(N(C)Cc2cnc3nc(N)nc(N)c3n2)cc1)C(=O)O (stereo not drawn)
T/C (endpoint: mean survival time, dose: 1.0 mg/kg/injection, schedule: Q01DX009 (ip), vehicle: sodium bicarbonate): 103 % of control | T/C (endpoint: mean survival time, dose: 10.0 mg/kg/injection, schedule: Q01DX009 (ip), vehicle: sodium bicarbonate): 108 % of control

O=C(OCC#CCOC(=O)c1c(Cl)ccc(Cl)c1Cl)c1c(Cl)ccc(Cl)c1Cl
T/C [3]: 89 % of control | T/C [6]: 89 % of control

C=CC(=O)OCCCS(=O)(=O)[O-].C=CC(=O)OCCCS(=O)(=O)[O-].NC1CCCCC1N.[Pt+4]
T/C (endpoint: median survival time, dose: 3.12 mg/kg/injection, schedule: Q04DX003 (ip), vehicle: saline with Tween-80): 108 % of control | T/C (endpoint: median survival time, dose: 6.25 mg/kg/injection, schedule: Q04DX003 (ip), vehicle: saline with Tween-80): 119 % of control and 109 % of control | T/C (endpoint: median survival time, dose: 12.5 mg/kg/injection, schedule: Q04DX003 (ip), vehicle: saline with Tween-80): 119 % of control and 109 % of control | T/C (endpoint: median survival time, dose: 25.0 mg/kg/injection, schedule: Q04DX003 (ip), vehicle: saline with Tween-80): 113 % of control and 120 % of control | T/C (endpoint: median survival time, dose: 100.0 mg/kg/injection, schedule: Q04DX003 (ip), vehicle: saline with Tween-80): 158 % of control and 168 % of control | T/C (endpoint: median survival time, dose: 200.0 mg/kg/injection, schedule: Q04DX003 (ip), vehicle: saline with Tween-80): 204 % of control and 301 % of control

CC(=O)OC(C)C(OC(C)=O)C(OC(C)=O)C(C=O)OC(C)=O (stereo not drawn)
T/C (endpoint: mean survival time, dose: 100.0 mg/kg/injection, schedule: Q01DX001 (ip), vehicle: Klucel (hydroxypropylcellulose) (HPC)): 101 % of control | T/C (endpoint: mean survival time, dose: 200.0 mg/kg/injection, schedule: Q01DX001 (ip), vehicle: Klucel (hydroxypropylcellulose) (HPC)): 101 % of control | T/C (endpoint: mean survival time, dose: 400.0 mg/kg/injection, schedule: Q01DX001 (ip), vehicle: Klucel (hydroxypropylcellulose) (HPC)): 101 % of control

O=C(Cl)CCc1ccnc2ccccc12
T/C (endpoint: mean survival time, dose: 100.0 mg/kg/injection, schedule: Q04DX003 (ip), vehicle: saline): 95 % of control | T/C (endpoint: mean survival time, dose: 200.0 mg/kg/injection, schedule: Q04DX003 (ip), vehicle: saline): 101 % of control | T/C (endpoint: mean survival time, dose: 400.0 mg/kg/injection, schedule: Q04DX003 (ip), vehicle: saline): 113 % of control

O=S1(=O)OC2(CCCCC2)c2ccccc21
T/C [1]: 95 % of control | T/C [3]: 96 % of control | T/C [4]: 95 % of control | T/C [6]: 90 % of control | T/C (endpoint: mean survival time, dose: 400.0 mg/kg/injection, schedule: Q01DX001 (ip), vehicle: saline with Tween-80): 100 % of control | T/C [7]: 93 % of control

CN(Cc1ccccc1)N=Nc1ccc(C#N)cc1
T/C [2]: 104 % of control | T/C [5]: 112 % of control | T/C (endpoint: mean survival time, dose: 400.0 mg/kg/injection, schedule: Q01DX009 (ip), vehicle: saline with Tween-80): 112 % of control
